Data taken from patent US20060029995A1, “Novel class of metacaspases” (Vlaams Interuniversitair Instituut Voor Biotechnologie VZW, priority 2003, published 2006).
Like-named read-outs stand apart in the source and are kept apart here. Starred links: 1 amine or outer side, 2 acyl side, 3 side chain; linkers in the order of their positions; H or OH if unused. Non-standard residues stand in square brackets, D forms with d. Residues, ends and D or L forms follow the SMILES beside them. *: point of attachment. Sta = CC(C)C[C@H](N)[C@@H](O)CC(=O)O; Isovaleryl = CC(C)CC(=O)*; code Z = not defined here; CO = O=C([*:1])[*:2]; CH2F = FC*

T1: Atmc9 (Arabidopsis thaliana, UniProt Q9FYE1)
T1 construct: it indeed consists of amino acids 184 to 325 (calculated mass 15427 Da); made in house; host or cells: E. coli BL21(DE3), pDEST17, Ni-NTA purified
T1 sequence (Q9FYE1 1-183 limits assumed): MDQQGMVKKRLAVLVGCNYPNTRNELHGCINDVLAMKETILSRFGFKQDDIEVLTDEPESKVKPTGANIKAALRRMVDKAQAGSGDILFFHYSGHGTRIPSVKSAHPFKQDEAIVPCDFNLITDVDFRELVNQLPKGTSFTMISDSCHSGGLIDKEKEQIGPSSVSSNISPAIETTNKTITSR
T1 sequence (Q9FYE1 184-325 limits assumed): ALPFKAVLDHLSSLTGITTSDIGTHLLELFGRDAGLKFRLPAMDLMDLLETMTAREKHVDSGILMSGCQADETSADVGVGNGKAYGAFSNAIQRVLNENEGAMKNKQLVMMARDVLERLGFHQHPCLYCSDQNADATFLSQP

B1: Soybean trypsin inhibitor: protease inhibitor (protein)
chain: DFVLDNEGNPLENGGTYYILSDITAFGGIRAAPTGNERCPLTVVQSRNELDKGIGTIISSPYRIRFIAEGHPLSLKFDSFAVIMLCVGIPTEWSVVEDLPEGPAVKIGENKDAMDGWFRLERVSDDEFNNYKLVFCPQQAEDDKCGDIGISIDHDDGTRRLVVSKNKPLVVQFQKLDKESL

Molecular target: T1, Atmc9
Assay type: biochemical
Details: for inhibition / inactivation of Atmc9: no concentration stated; for inhibition of Atmc9 activity: at the millimolar range
Protocol: Assays were performed in 150 μl with 400 ng of purified Atmc9 and 50 μM substrate in an optimized metacaspase 9 assay buffer (50 mM MES pH 5.3, 10% (w/v) sucrose, 0.1% (w/v) 3-[(3-cholamidopropyl)dimethylammonio]-1-propanesulfonate [CHAPS], 10 mM DTT). Time-dependent release of free amido-4-methylcoumarin (AMC) was measured on a Cytofluor 4000 fluorescence microplate reader (PerSeptive Biosystems, Farmingham, Md., USA).
We also assessed the sensitivity of Atmc9 for several protease inhibitors, chelating agents, metal ions, and stabilizing agents in the GKR-ase assay (Table 2). […] To optimize the assay conditions for Atmc9 activity, several stabilizing agents were tested.
Percentage of the activity of recombinant Atmc9 in 50 mM MES (pH 5.3) and 10 mM DTT.

Molecule	inhibition / inactivation of Atmc9	Activity (%) (pH 5.3)	other results
CC(C)C[C@H](NC(=O)[C@H]1O[C@@H]1C(=O)O)C(=O)NCCCCN=C(N)N (relative stereo) [E-64, L-trans-epoxysuccinyl-leucylamide-(4-guanido)-butane]	no significant blocking capacity	92	–
CC(C)[C@H](NC(=O)[C@H](CCCNC(=N)N)NC(=O)N[C@@H](Cc1ccccc1)C(=O)O)C(=O)N[C@H](C=O)CCCNC(=N)N [Antipain] ({Phe-CO}-Arg-Val-Arg-aldehyde)	–	13	–
N=C(N)c1ccccc1 [Benzamidine]	–	22	inhibition of Atmc9 activity: inhibited
C[C@H](CCC(=O)NCCC[N+](C)(C)CCCS(=O)(=O)[O-])[C@H]1CC[C@H]2[C@@H]3[C@H](O)C[C@@H]4C[C@H](O)CC[C@]4(C)[C@H]3C[C@H](O)[C@]12C [CHAPS, 3-[(3-cholamidopropyl)dimethylammonio]-1-propanesulfonate]	–	127	–
CC(C)C[C@H](NC(=O)[C@@H](NC(=O)N[C@@H](Cc1ccccc1)C(=O)O)[C@@H]1CCN=C(N)N1)C(=O)N[C@H](C=O)Cc1ccccc1 [Chymostatin]	weak inhibitors	33	–
NC(=O)CI [Iodoacetamide]	–	8	inhibition of Atmc9 activity: inhibited
CC(=O)N[C@@H](CC(C)C)C(=O)N[C@@H](CC(C)C)C(=O)N[C@H](C=O)CCCNC(=N)N [Leupeptin]	–	1	inhibition of Atmc9 (at concentrations as low as 1 μM): strongly inhibited
O=S(=O)(F)Cc1ccccc1 [PMSF]	no significant blocking capacity	–	Activity (%) (reagent 1 mM, % of activity of recombinant Atmc9 in 50 mM MES pH 5.3, 10 mM DTT): 86%
CC(C)CC(=O)N[C@H](C(=O)N[C@H](C(=O)N[C@@H](CC(C)C)[C@@H](O)CC(=O)N[C@@H](C)C(=O)N[C@@H](CC(C)C)[C@@H](O)CC(=O)O)C(C)C)C(C)C [Pepstatin] (Isovaleryl-VV[Sta]A[Sta]-OH)	no significant blocking capacity	97	–
OC[C@H]1O[C@@](CO)(O[C@H]2O[C@H](CO)[C@@H](O)[C@H](O)[C@H]2O)[C@@H](O)[C@@H]1O [Sucrose]	–	121	–
Cc1ccc(S(=O)(=O)N[C@@H](Cc2ccccc2)C(=O)CCl)cc1 [TPCK, N^□-tosyl-L-phenylalanyl-chloromethyl ketone]	weak inhibitors	35	–
Aprotinin	no significant blocking capacity	96	–
Z-DEVD-cmk: caspase inhibitor; cmk, chloromethyl ketone	–	94	–
Z-VAD-fmk: caspase inhibitor; fmk, fluoromethyl ketone ({code Z}-Val-Ala-Asp-CH2F; reading uncertain; also: printed as Z-VAD-fmk)	–	87	–
Z-YVAD-cmk: caspase inhibitor; cmk, chloromethyl ketone	–	100	–
B1	no significant blocking capacity	73	–
